# Target: T1, Ubiquitin carboxyl-terminal hydrolase isozyme L3 (Homo sapiens, UniProt P15374)
# T1 sequence (P15374 whole entry): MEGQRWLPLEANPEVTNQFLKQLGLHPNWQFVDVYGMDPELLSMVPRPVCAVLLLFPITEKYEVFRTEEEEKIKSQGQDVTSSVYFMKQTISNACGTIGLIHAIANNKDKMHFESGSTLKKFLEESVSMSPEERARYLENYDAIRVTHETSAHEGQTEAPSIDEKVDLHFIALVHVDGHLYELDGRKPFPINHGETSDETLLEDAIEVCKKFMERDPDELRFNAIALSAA
# Experiment: Enzyme Inhibition Assay
# Settings: pH 7.8; 22 °C
# Method: Enzyme reactions were carried out on Costar 96-well black assay plates. After the reaction, AMC fluorescence (excitation wavelength: 355 nm, emission wavelength: 460 nm) was subsequently measured 40 times every 3 s with a Wallac 1420 multi-label counter. Initial velocities (from 0 to 30 s) were used for IC50 determination, using GraphPad Prism 4 software.
row,IC50 [µM],SMILES
1,154,COc1ccc(C2C(C(=O)c3cccs3)C(=O)C(=O)N2c2nncs2)cc1 (stereo not drawn)
2,103,"Cc1ccc(C(=O)C2C(=O)C(=O)N(Cc3ccccc3)C2c2cccnc2)o1 (stereo not drawn) [1-benzyl-3-hydroxy-4-[(5-methylfuran-2-yl)carbonyl]-5-(pyridin-3-yl)-2,5-dihydro-1H-pyrrol-2-one]"
3,> 386,COc1cccc(N(CC(=O)NC2CCCC2)S(=O)(=O)c2ccccc2)c1 [2-[benzene(3-methoxyphenyl)sulfonamido]-N-cyclopentylacetamide]
4,> 387,"Nc1nc(CSc2nnc(-c3ccco3)n2-c2ccccc2)cs1 [4-({[5-(furan-2-yl)-4-phenyl-4H-1,2,4-triazol-3-yl]sulfanyl}methyl)-1,3-thiazol-2-amine]"
5,123,"Cc1ccc(C(=O)C2C(=O)C(=O)N(Cc3cccnc3)C2c2ccc(F)cc2)o1 (stereo not drawn) [5-(4-fluorophenyl)-3-hydroxy-4-[(5-methylfuran-2-yl)carbonyl]-1-(pyridin-3-ylmethyl)-2,5-dihydro-1H-pyrrol-2-one]"
6,> 401,COc1ccc(S(=O)(=O)N(CC(=O)NC2CC2)c2ccc(C)cc2)cc1 [N-cyclopropyl-2-[(4-methoxybenzene)(4-methylphenyl)sulfonamido]acetamide]
7,> 334,COc1ccc(N(CC(=O)NC2CC2)S(=O)(=O)c2ccc(C)cc2)cc1 [N-cyclopropyl-2-[(4-methoxyphenyl)(4-methylbenzene)sulfonamido]acetamide]
8,> 331,"CCS(=O)(=O)Nc1cccc(C2=NN(C(C)=O)C(c3cccs3)C2)c1 (stereo not drawn) [N-{3-[1-acetyl-5-(thiophen-2-yl)-4,5-dihydro-1H-pyrazol-3-yl]phenyl}ethane-1-sulfonamide]"

# Reference: BindingDB's records for doi:10.1016/j.bmc.2007.07.016 (Waseda University, 2007)
